{"source": "patent US20060154907A1", "about": "“Method of treating hormonal deficiencies in women undergoing estrogen replacement therapy” (Barr Laboratories, Inc., priority 2000, published 2006)", "key": {"uterine horns in mice [1]": {"tested_on": "uterine horns in mice", "assay": "Weight of uterine horns in ovariectomized mice: estrogen, oxandrolone or combination", "conditions": "second experiment (oxandrolone); for D Hs/BW (dry horns Rt + Lt / body weight) / Lt H D (left horn dry weight) / Rt H D (right horn dry weight): dried 90° C. 24 hrs; for W Hs/BW (wet horns Rt + Lt / body weight) / Lt H W (left horn wet weight) / Rt H W (right horn wet weight): daily injections 7 days", "excerpt": "(§1) The protocol employed in the experiment included taking ovariectomized female mice ordered from Charles River Laboratories, of which the females were 32-52 days old, after ovariectomy, and separating them into four groups. The first group of mice received daily injections of testosterone for 7 days. A second group of mice received daily injections of estradiol for 7 days. A third group of mice received daily injections of testosterone plus estradiol for 7 days. Finally, the mice in the fourth group received daily injections of a control vehicle for 7 days. All of the injections were given 1M at 10 AM, alternatively to the right and left buttock. The daily amount injected of the estradiol and/or testosterone was 10 μg/Kg of each hormone, delivered at a dose of 0.25 ml.\n(§2) The injections were produced based upon the following protocols. The estradiol selected was the oil-dissolved 17β-estradiol from Sigma (17β-estradiol E-8875. The estradiol was prepared by dissolving 200 μg of the hormone in 0.25 ml ethanol for a ×1000 stock (0.8 mg/1 ml=×1000 stock). Next, 10 μl aliquots were dispensed into nine 15 ml conical plastic tubes and frozen. For each injection, one of the tubes was thawed, 9.99 ml saline was added and then mixed to obtain 10 ml of the solution at a level of 0.8 μg/1 ml. Then, 0.25 ml were injected into each animal.\nA second experiment was performed using the protocols set above. The only change included replacing testosterone with oxandrolone. The oxandrolone was prepared by dissolving a 20 mg powder of the original vial in 1.0 ml of DMSO. 100 μl aliquots were then dispensed into 10 new vials (each containing now 2 mg/vial, or 20 μg/μl) and all vials, except one, were frozen at −20° C. The 9 frozen vials are referred to herein as “Original Stocks”.\nNext, one of the Original Stock vials containing 100 μl of 20 μg/μl Oxandrolone was diluted to a 1:5 ratio in DMSO by adding 400 μl DMSO. […] 50 μl aliquots were then dispensed into 10 vials (each containing now 0.4 μg/μl, or 20 μg/50 μl) of which nine were frozen. The frozen vials from this part of the experiment are herein referred to as “Diluted Stocks”.\nOne Diluted Stock vial was taken and diluted in 24.95 ml saline to get a solution of 20 μg/25 ml oxandrolone, or 0.2 μg/0.25 ml. The 0.5 ml aliquots are then dispensed into 20 vials and frozen. The remaining 15 ml were discarded. On the day of injection, each one of the vials was thawed 0.25 ml were injected into each animal based upon a 20 gm animal. The dose injected may be adjusted per actual weight of the animal (may vary from 19 gm to 24 gm, 0.238 ml to 0.3 ml).\nAfter the last day of injections, the mice were weighed and then euthanized in a CO2 chamber. Blood was obtained from the heart in an amount of 2-5 ml. Time was allotted to let it clot and then it was centrifuged and the serum was collected and stored at −80° C. The abdomen was opened by a longitudinal ventral incision. Then the uterine horns were identified and the right horn was transected from the level of the vagina until the ovary (thus, without the ovary and without the parametrium). This process was repeated for the left horn. Both horns were weighed to determine the wet weight of the horns. Then the horns were placed on silver foil paper and baked in an oven at 90° C. for 24 hrs. Then the dry weight of the horns was taken."}, "uterine horns in mice [2]": {"tested_on": "uterine horns in mice", "assay": "Weight of uterine horns in ovariectomized mice: estrogen, testosterone or combination", "conditions": "daily injections 7 days, 10 μg/Kg of each hormone; for D Hs/BW (dry horns Rt + Lt / body weight) / Lt H D (left horn dry weight) / Rt H D (right horn dry weight): dried 90° C. 24 hrs", "excerpt": "Applicants performed a set of experiments to determine the effects of estrogen and testosterone on weight of uterine horns in mice.\nas §1, §2\nThe testosterone selected was testosterone enanthane from Bristol Myers Squib (Delatestryl™). The testosterone was prepared by aspirating […] from a bottle containing 200 mg/1 ml testosterone via a tuberculin syringe of 1.0 ml. Next, 24.9 ml of ethanol was poured into a 50 ml conical plastic tube. Then 0.1 ml of the testosterone was dissolved in the syringe with the 24.9 ml of ethanol. This produced a ×1000 stock of 0.8 mg/1 ml. Similar to the estradiol protocol, next, 10 μl aliquots were dispensed into nine 15 ml conical plastic tubes and frozen. For each injection, one of the tubes was thawed, 9.99 ml saline is added and then mixed to obtain 10 ml of the solution at a level of 0.8 μg/1 ml. Then, 0.25 ml were injected into each animal. The injections were based for a 20 gm animal. The dose injected per actual weight of the animal may be adjusted by varying the weight, i.e., may vary from 19 gm to 24 gm (0.238 ml to 0.3 ml).\nAfter the seven days of injections, the mice were euthanized via injection from Lumina. The mice were then weighed. After midline laparotomy, 2 ml to 5 ml does of blood was obtained from the heart. The blood was allowed to clot and was then centrifuged and the resulting serum was collected and stored at −80° C. The uterine horns were then identified, transected from the level of the vagina till the ovary (without the ovary and without the parametrium), weighted (i.e., wet weight of Rt and Lt horn), and placed separately in a piece of silver foil paper, and baked in an oven at 90° C. for 24 hrs to obtain the dry weight of the horns."}, "[3]": {"conditions": "individual animal, ovariectomized female mice"}}, "note": "Several values for one entry are separate records, joined by “and”; a condition that tells them apart may be missing. Identical values can stand only once.", "data": [{"smiles": "C[C@]12CC[C@@H]3c4ccc(O)cc4CC[C@H]3[C@@H]1CC[C@@H]2O", "note": "[E, 17β-estradiol]", "values": [{"measurement": "D Hs/BW (dry horns Rt + Lt / body weight)", "setting": "uterine horns in mice [1]; group mean", "value": 0.66, "unit": "mg/gm"}, {"measurement": "W Hs/BW (wet horns Rt + Lt / body weight)", "setting": "uterine horns in mice [1]; group mean", "value": 3.63, "unit": "mg/gm"}, {"measurement": "D Hs/BW (dry horns Rt + Lt / body weight)", "setting": "uterine horns in mice [1]; individual animal", "value": "0.97 mg/gm and 0.60 mg/gm and 0.61 mg/gm and 0.49 mg/gm and 0.63 mg/gm"}, {"measurement": "Lt H D (left horn dry weight)", "setting": "uterine horns in mice [1]; individual animal", "value": "12 mg and 4.8 mg and 7.7 mg and 4.6 mg and 5 mg"}, {"measurement": "Rt H D (right horn dry weight)", "setting": "uterine horns in mice [1]; individual animal", "value": "9.9 mg and 7.3 mg and 4.7 mg and 6.5 mg and 8.0 mg"}, {"measurement": "Lt H W (left horn wet weight)", "setting": "uterine horns in mice [1]; individual animal", "value": "44.9 mg and 29.7 mg and 48.1 mg and 34.4 mg and 32.7 mg"}, {"measurement": "Rt H W (right horn wet weight)", "setting": "uterine horns in mice [1]; individual animal", "value": "46.7 mg and 41.2 mg and 30 mg and 35 mg and 44.2 mg"}, {"measurement": "W Hs/BW (wet horns Rt + Lt / body weight)", "setting": "uterine horns in mice [1]; individual animal", "value": "4.06 mg/gm and 3.52 mg/gm and 3.82 mg/gm and 3.05 mg/gm and 3.70 mg/gm"}, {"measurement": "Lt H W (left horn wet weight)", "setting": "uterine horns in mice [2]; group mean", "value": 20.0, "unit": "mg"}, {"measurement": "Rt H W (right horn wet weight)", "setting": "uterine horns in mice [2]; group mean", "value": 19.5, "unit": "mg"}, {"measurement": "W Hs/BW (wet horns Rt + Lt / body weight)", "setting": "uterine horns in mice [2]; group mean", "value": 1.82, "unit": "mg/gm"}, {"measurement": "D Hs/BW (dry horns Rt + Lt / body weight)", "setting": "uterine horns in mice [2]; group mean", "value": 0.27, "unit": "mg/gm"}, {"measurement": "Lt H D (left horn dry weight)", "setting": "uterine horns in mice [2]; group mean", "value": 2.9, "unit": "mg"}, {"measurement": "Rt H D (right horn dry weight)", "setting": "uterine horns in mice [2]; group mean", "value": 3.0, "unit": "mg"}, {"measurement": "D Hs/BW (dry horns Rt + Lt / body weight)", "setting": "uterine horns in mice [2]; individual animal", "value": "0.28 mg/gm and 0.21 mg/gm and 0.38 mg/gm and 0.24 mg/gm and 0.22 mg/gm"}, {"measurement": "Lt H D (left horn dry weight)", "setting": "uterine horns in mice [2]; individual animal", "value": "2.9 mg and 2.2 mg and 4.2 mg and 2.6 mg and 2.4 mg"}, {"measurement": "Rt H D (right horn dry weight)", "setting": "uterine horns in mice [2]; individual animal", "value": "3.3 mg and 2.5 mg and 4.0 mg and 2.4 mg and 2.6 mg"}, {"measurement": "Lt H W (left horn wet weight)", "setting": "uterine horns in mice [2]; [3]", "value": "21.5 mg and 18.0 mg and 24.2 mg and 19.5 mg and 16.7 mg"}, {"measurement": "Rt H W (right horn wet weight)", "setting": "uterine horns in mice [2]; [3]", "value": "20.6 mg and 16.2 mg and 26.6 mg and 17.3 mg and 16.9 mg"}, {"measurement": "W Hs/BW (wet horns Rt + Lt / body weight)", "setting": "uterine horns in mice [2]; [3]", "value": "1.92 mg/gm and 1.55 mg/gm and 2.37 mg/gm and 1.79 mg/gm and 1.47 mg/gm"}]}, {"smiles": "C[C@]12COC(=O)C[C@@H]1CC[C@@H]1[C@@H]2CC[C@@]2(C)[C@H]1CC[C@]2(C)O", "note": "[Ox, oxandrolone]", "values": [{"measurement": "D Hs/BW (dry horns Rt + Lt / body weight)", "setting": "uterine horns in mice [1]; group mean", "value": 0.35, "unit": "mg/gm"}, {"measurement": "W Hs/BW (wet horns Rt + Lt / body weight)", "setting": "uterine horns in mice [1]; group mean", "value": 1.54, "unit": "mg/gm"}, {"measurement": "D Hs/BW (dry horns Rt + Lt / body weight)", "setting": "uterine horns in mice [1]; individual animal", "value": "0.26 mg/gm and 0.20 mg/gm and 0.76 mg/gm and 0.16 mg/gm and 0.37 mg/gm"}, {"measurement": "Lt H D (left horn dry weight)", "setting": "uterine horns in mice [1]; individual animal", "value": "2.3 mg and 2.2 mg and 5.5 mg and 1.4 mg and 4.3 mg"}, {"measurement": "Rt H D (right horn dry weight)", "setting": "uterine horns in mice [1]; individual animal", "value": "3.4 mg and 2.0 mg and 12.5 mg and 2.2 mg and 4.2 mg"}, {"measurement": "Lt H W (left horn wet weight)", "setting": "uterine horns in mice [1]; individual animal", "value": "14.4 mg and 13.8 mg and 22.9 mg and 11.3 mg and 19.4 mg"}, {"measurement": "Rt H W (right horn wet weight)", "setting": "uterine horns in mice [1]; individual animal", "value": "16.5 mg and 12.0 mg and 35.7 mg and 13.2 mg and 14.6 mg"}, {"measurement": "W Hs/BW (wet horns Rt + Lt / body weight)", "setting": "uterine horns in mice [1]; individual animal", "value": "1.40 mg/gm and 1.22 mg/gm and 2.47 mg/gm and 1.11 mg/gm and 1.50 mg/gm"}]}, {"smiles": "CCCCCCC(=O)O[C@H]1CC[C@H]2[C@@H]3CCC4=CC(=O)CC[C@]4(C)[C@H]3CC[C@]12C", "note": "[T, testosterone enanthane]", "values": [{"measurement": "Lt H W (left horn wet weight)", "setting": "uterine horns in mice [2]; group mean", "value": 12.6, "unit": "mg"}, {"measurement": "Rt H W (right horn wet weight)", "setting": "uterine horns in mice [2]; group mean", "value": 14.0, "unit": "mg"}, {"measurement": "W Hs/BW (wet horns Rt + Lt / body weight)", "setting": "uterine horns in mice [2]; group mean", "value": 1.21, "unit": "mg/gm"}, {"measurement": "D Hs/BW (dry horns Rt + Lt / body weight)", "setting": "uterine horns in mice [2]; group mean", "value": 0.27, "unit": "mg/gm"}, {"measurement": "Lt H D (left horn dry weight)", "setting": "uterine horns in mice [2]; group mean", "value": 3.2, "unit": "mg"}, {"measurement": "Rt H D (right horn dry weight)", "setting": "uterine horns in mice [2]; group mean", "value": 2.8, "unit": "mg"}, {"measurement": "D Hs/BW (dry horns Rt + Lt / body weight)", "setting": "uterine horns in mice [2]; individual animal", "value": "0.57 mg/gm and 0.25 mg/gm and 0.16 mg/gm and 0.09 mg/gm and 0.31 mg/gm"}, {"measurement": "Lt H D (left horn dry weight)", "setting": "uterine horns in mice [2]; individual animal", "value": "8.2 mg and 4.3 mg and 0.8 mg and 0.9 mg and 1.9 mg"}, {"measurement": "Rt H D (right horn dry weight)", "setting": "uterine horns in mice [2]; individual animal", "value": "4.3 mg and 1.1 mg (2×) and 2.5 mg and 4.8 mg"}, {"measurement": "Lt H W (left horn wet weight)", "setting": "uterine horns in mice [2]; [3]", "value": "21.3 mg and 15.6 mg and 3.7 mg and 8.4 mg and 13.9 mg"}, {"measurement": "Rt H W (right horn wet weight)", "setting": "uterine horns in mice [2]; [3]", "value": "16.2 mg and 11.7 mg and 13.5 mg and 8.4 mg and 20.1 mg"}, {"measurement": "W Hs/BW (wet horns Rt + Lt / body weight)", "setting": "uterine horns in mice [2]; [3]", "value": "1.72 mg/gm and 1.26 mg/gm and 0.81 mg/gm and 0.72 mg/gm and 1.55 mg/gm"}]}]}
